Assay results: patent US8344010B2, “Fused imidazole derivatives as TRPV3 antagonist” (Glenmark Pharmaceuticals S.A., priority 2008, dated 2013)

Molecular target: T1, Human TRPV3 (Homo sapiens, UniProt Q8NET8)
T1 construct: expressed in transfected cells; host or cells: CHO cells (selected with G-418)
T1 sequence (Q8NET8 1-790): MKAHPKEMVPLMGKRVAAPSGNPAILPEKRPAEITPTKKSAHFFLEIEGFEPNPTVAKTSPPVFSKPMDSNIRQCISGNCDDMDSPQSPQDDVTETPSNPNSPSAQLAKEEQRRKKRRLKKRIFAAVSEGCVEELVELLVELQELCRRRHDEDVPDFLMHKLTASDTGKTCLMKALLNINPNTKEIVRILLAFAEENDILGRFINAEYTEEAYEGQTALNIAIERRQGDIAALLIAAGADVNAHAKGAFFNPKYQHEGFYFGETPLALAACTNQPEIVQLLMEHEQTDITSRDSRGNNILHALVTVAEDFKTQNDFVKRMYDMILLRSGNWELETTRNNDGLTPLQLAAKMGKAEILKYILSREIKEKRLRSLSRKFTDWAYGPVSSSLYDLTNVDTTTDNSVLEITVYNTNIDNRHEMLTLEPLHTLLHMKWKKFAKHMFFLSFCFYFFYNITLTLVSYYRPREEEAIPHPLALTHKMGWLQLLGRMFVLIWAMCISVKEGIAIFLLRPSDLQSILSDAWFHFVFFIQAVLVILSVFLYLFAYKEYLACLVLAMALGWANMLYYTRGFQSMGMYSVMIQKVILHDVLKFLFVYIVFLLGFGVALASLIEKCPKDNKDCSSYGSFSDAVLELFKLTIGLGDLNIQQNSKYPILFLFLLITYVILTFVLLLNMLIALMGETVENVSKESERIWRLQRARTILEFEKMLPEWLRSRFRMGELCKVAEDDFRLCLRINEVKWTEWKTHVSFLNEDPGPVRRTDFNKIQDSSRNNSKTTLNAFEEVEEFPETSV
Assay: 45Calcium uptake assay: inhibition of 2-APB induced cellular uptake of radioactive calcium
Assay type: cell-based
Settings: human TRPV3 expressing CHO cells, 2-APB 500 μM; for inhibition at 1 µM: 1 μM test compound, read-out: Percentage Inhibition (1 μM); for inhibition at 10 µM: 10 μM test compound, read-out: Percentage Inhibition (10 μM)
Text: The illustrative examples of the present invention are screened for TRPV3 activity according to a modified procedure described in Tóth, A., Kedei, N., Wang, Y. and Blumberg, P. M. Life Sciences (2003), 73, 487-498. The screening of the compounds can be carried out by other methods and procedures known to a person skilled in the art. Such screening methods may be found in (a) Hu, H.-Z. et al. J. Biol. Chem. (2004), 279, 35741-35747; (b) Smith, G. D. et al. Nature (2002), 418, 186-190; (c) Peier, A. M. et al. Science (2002), 296, 2046-2049.
Screening for TRPV3 antagonist using the ^45Calcium uptake assay The inhibition of TRPV3 receptor activation was followed as inhibition of 2-aminoethoxydiphenylborate (2-APB) induced cellular uptake of radioactive calcium. Test compounds were dissolved in dimethyl sulfoxide (DMSO) to prepare 20 mM stock solution and then diluted using plain medium with DMEM/F-12 containing 1.8 mM CaCl2 to get desired concentration. Final concentration of DMSO in the reaction was 0.5% (v/v). Human TRPV3 expressing CHO cells were grown in DMEM/F-12 medium with 10% FBS, 1% penicillin-streptomycin solution, 400 μg/ml of G-418. Cells were seeded 24 h prior to the assay in 96 well plates so as to get ˜50,000 cells per well on the day of experiment. Cells were treated with test compounds for 10 minutes followed by addition of 2-APB at a final concentration of 500 μM and 5 μCi/ml^45Ca^+2 for 4 minutes. Cells were washed and lysed using buffer containing 1% Triton X-100, 0.1% deoxycholate and 0.1% SDS. Radioactivity in the lysate was measured in Packardt Top count after addition of liquid scintillant. Concentration response curves were plotted as a % of maximal response obtained in the absence of test antagonist. IC50 value was calculated from concentration response curve by nonlinear regression analysis using GraphPad PRISM software.
Percentage inhibition at concentrations of 1.0 μM and 10.0 μM are given in the table along with IC50 details for selected examples.

In the case of `COc1cccc(/C=C/c2nc3ccccc3n2-c2ncc(Br)cn2)c1OC1CCCC1` [Example 23, 1-(5-Bromopyrimidin-2-yl)-2-[(E)-2-(2-cyclopentyloxy-3-methoxyphenyl)vinyl]-1H-benzimidazole], the inhibition at 1 µM is reported as 56% and the inhibition at 10 µM is reported as 84.5%.

`CCCCOc1c(/C=C/c2nc3ccccc3n2-c2ccc(C#N)cn2)cccc1OC` [Example 8, 6-{2-[(E)-2-(2-Butoxy-3-methoxyphenyl)vinyl]-1H-benzimidazol-1-yl}nicotinonitrile] was tested, and the inhibition at 1 µM was 91.6%, the inhibition at 10 µM was 97% and the IC50 (class symbol) was 0.1 to 0.5 µM.

For `COc1cccc(/C=C/c2nc3ccccc3n2-c2ccccn2)c1OCC1CC1` [Example 1, 2-{(E)-2-[2-(Cyclopropylmethoxy)-3-methoxyphenyl]vinyl}-1-pyridin-2-yl-1H-benzimidazole], the inhibition at 1 µM was 12.8% and the inhibition at 10 µM was 78.5%.

`COc1cccc(/C=C/c2nc3ccccc3n2-c2ccc(C#N)cn2)c1OCc1ccccc1C(F)(F)F` [Example 16, 6-{2-[(E)-2-(3-Methoxy-2-{[2-(trifluoromethyl)benzyl]oxy}phenyl)vinyl]-1H-benzimidazole-1-yl}nicotinonitrile] showed an inhibition at 1 µM of 97.7%, an inhibition at 10 µM of 99% and an IC50 (class symbol) of 0.05 to 0.1 µM.

For `COc1cccc(/C=C/c2nc3cc(F)c(F)cc3n2-c2ccc(C(=O)O)nn2)c1OC1CCCC1` [Example 74, 6-{2-[(E)-2-(2-Cyclopentyloxy-3-methoxyphenyl)vinyl]-5,6-difluoro-1H-benzimidazol-1-yl}pyridazine-3-carboxylic acid], the inhibition at 1 µM was 1.7% and the inhibition at 10 µM was 1.51%.

`COc1cccc(/C=C/c2nc3cc(Cl)c(C(F)(F)F)cc3n2-c2ccc(C#N)cn2)c1OC1CCCC1` [Example 71, 6-{5-Chloro-2-[(E)-2-(2-cyclopentyloxy-3-methoxyphenyl)vinyl]-6-(trifluoromethyl)-1H-benzimidazol-1-yl}nicotinonitrile] showed an inhibition at 1 µM of 53.7% and an inhibition at 10 µM of 79.4%.

`FC(F)Oc1cccc(/C=C/c2nc3cccnc3n2-c2ccc(C(F)(F)F)cc2)c1OCC1CCC1` [Example 99, 2-[(E)-2-(2-Cyclobutylmethoxy-3-difluoromethoxyphenyl)vinyl]-3-[4-(trifluoromethyl)phenyl]-3H-imidazo[4,5-b]pyridine] was tested, and the inhibition at 1 µM was 89.5%, the inhibition at 10 µM was 95.8% and the IC50 (class symbol) was > 0.5 µM.

Work on `COc1cccc(/C=C/c2nc3cccnc3n2-c2ccc(C#N)cn2)c1OC1CCCC1` [Example 91, 6-{2-[(E)-2-(2-[Cyclopentyloxy]-3-methoxyphenyl)vinyl]-3H-imidazo[4,5-b]pyridin-3-yl}nicotinonitrile] yielded an inhibition at 1 µM of 95.3%, an inhibition at 10 µM of 99.7% and an IC50 (class symbol) of 0.1 to 0.5 µM.

In the case of `COc1cccc(/C=C/c2nc3cccnc3n2-c2ccc(C#N)cn2)c1OCC1CC1` [Example 89, 6-{2-[(E)-2-(2-[Cyclopropylmethoxy]-3-methoxyphenyl)vinyl]-3H-imidazo[4,5-b]pyridin-3-yl}nicotinonitrile], the inhibition at 1 µM is reported as 74.2%, the inhibition at 10 µM is reported as 96.6% and the IC50 (class symbol) is reported as 0.1 to 0.5 µM.

With `COc1cccc(/C=C/c2nc3ccccc3n2-c2ncc(Cl)cc2Cl)c1OCc1ccccc1F` [Example 6, 1-(3,5-Dichloropyridin-2-yl)-2-{(E)-2-[2-(2-fluorobenzyloxy)-3-methoxyphenyl]vinyl}-1H-benzimidazole] the inhibition at 1 µM was 66.8%, the inhibition at 10 µM was 89% and the IC50 (class symbol) was > 0.5 µM.

Work on `COc1cccc(/C=C/c2nc3ccccc3n2-c2nccs2)c1OC1CCCC1` [Example 47, 2-[(E)-2-(2-Cyclopentyloxy-3-methoxyphenyl)vinyl]-1-(1,3-thiazol-2-yl)-1H-benzimidazole] yielded an inhibition at 1 µM of 22.4% and an inhibition at 10 µM of 79.7%.

`COc1cccc(/C=C/c2nc3ccccc3n2-c2nc(C)c(C#N)s2)c1OC1CCCC1` [Example 49, 2-{2-[(E)-2-(2-Cyclopentyloxy-3-methoxyphenyl)vinyl]-1H-benzimidazol-1-yl}-4-methyl-1,3-thiazole-5-carbonitrile] showed an inhibition at 1 µM of 56.1% and an inhibition at 10 µM of 76.9%.

For `COc1cccc(/C=C/c2nc3ccccc3n2-c2ccc(Cl)cn2)c1OC1CCCC1` [Example 3, 1-(5-Chloropyridin-2-yl)-2-{(E)-2-[2-(cyclopentyloxy)-3-methoxyphenyl]vinyl}-1H-benzimidazole], the inhibition at 1 µM was 62.1%, the inhibition at 10 µM was 86.6% and the IC50 (class symbol) was > 0.5 µM.

Work on `COc1cccc(/C=C/c2nc3cc(F)c(F)cc3n2-c2ccc(C#N)nn2)c1OC1CCCC1` [Example 76, 6-{2-[(E)-2-(2-Cyclopentyloxy-3-methoxyphenyl)vinyl]-5,6-difluoro-1H-benzimidazol-1-yl}pyridazine-3-carbonitrile] yielded an inhibition at 1 µM of 96.3%, an inhibition at 10 µM of 97% and an IC50 (class symbol) of 0.1 to 0.5 µM.

With `COc1cccc(/C=C/c2nc3cc(F)cc(F)c3n2-c2ccc(C#N)cn2)c1OC1CCCC1` [Example 79, 6-{5,7-Difluoro-2-[(E)-2-(2-[cyclopentyloxy]-3-methoxyphenyl)vinyl]-1H-benzimidazol-1-yl}nicotinonitrile] the inhibition at 1 µM was 93.7%, the inhibition at 10 µM was 96.8% and the IC50 (class symbol) was 0.05 to 0.1 µM. The IC50 (numeric value) was 0.0692 µM.

With `N#Cc1ccc(-n2c(/C=C/c3cccc(OC(F)F)c3OCC3CCC3)nc3cc(Cl)cnc32)nc1` [Example 102, 6-(6-Chloro-2-{(E)-2-[2-(cyclobutylmethoxy)-3-difluoromethoxyphenyl]vinyl}-3H-imidazo[4,5-b]pyridin-3-yl)nicotinonitrile] the inhibition at 1 µM was 95.1%, the inhibition at 10 µM was 98.1% and the IC50 (class symbol) was 0.05 to 0.1 µM.

`COc1cccc(/C=C/c2nc3ccccc3n2-c2ccc(C#N)cn2)c1OC1CCCC1` [Example 13, 6-{2-[(E)-2-(2-Cyclopentyloxy-3-methoxyphenyl)vinyl]-1H-benzimidazol-1-yl}nicotinonitrile] gave an inhibition at 1 µM of 89.1%, an inhibition at 10 µM of 95.8% and an IC50 (class symbol) of 0.1 to 0.5 µM.

`COc1cccc(/C=C/c2nc3ccccc3n2-c2ccc(C(F)(F)F)cc2)c1OCC1CC1` [Example 37, 2-[(E)-2-(2-Cyclopropylmethoxy-3-methoxyphenyl)vinyl]-1-[4-(trifluoromethyl)phenyl]-1H-benzimidazole] was tested, and the inhibition at 1 µM was 72.2%, the inhibition at 10 µM was 84.6% and the IC50 (class symbol) was 0.1 to 0.5 µM.

In the case of `COc1cccc(/C=C/c2nc3cc(Cl)cnc3n2-c2ccc(C#N)cn2)c1OC1CCCC1` [Example 95, 6-{6-Chloro-2-[(E)-2-(2-(cyclopentyloxy)-3-methoxyphenyl)vinyl]-3H-imidazo[4,5-b]pyridin-3-yl}nicotinonitrile], the inhibition at 1 µM is reported as 93.7%, the inhibition at 10 µM is reported as 97.8% and the IC50 (class symbol) is reported as 0.05 to 0.1 µM.

For `COc1cccc(/C=C/c2nc3ccccc3n2-c2ccc(F)c(C#N)c2)c1OCC1CC1` [Example 38], the inhibition at 1 µM was 48.3% and the inhibition at 10 µM was 59.2%.

With `COc1cccc(/C=C/c2nc3ccccc3n2-c2nccs2)c1OCC1CC1` [Example 46] the inhibition at 1 µM was 16.1% and the inhibition at 10 µM was 81.1%.

`CCCCCOc1c(/C=C/c2nc3cc(F)cc(F)c3n2-c2ccc(C#N)cn2)cccc1OC` [Example 78, 6-{5,7-Difluoro-2-[(E)-2-(2-pentyloxy-3-methoxyphenyl)vinyl]-1H-benzimidazol-1-yl}nicotinonitrile] showed an inhibition at 1 µM of 92.7%, an inhibition at 10 µM of 96.8% and an IC50 (class symbol) of 0.05 to 0.1 µM.
